Measured values published in patent US20110040086A1, “Novel Beta-Lactam Antibiotics, Methods for Their Production, and Their Use” (DRITTE PATENTPORTFOLIO BETEILIGUNGSGESELLSCHAFT MB, priority 2007, published 2011).

Key:
[1] = tested on: Enterococcus faecalis 769; test: agar diffusion test (Test System II, multi-resistant germs); type: cell-based; design: key: r = resistant (no detectable zone of inhibition)
Description: (§1) The test substances are deposited in stepped quantities (10 μg, 50 μg, 100 μg) onto active ingredient carriers (sensi-discs). For this purpose, the test substances are dissolved in methanol or A. dest. according to their solubility. Each inoculated plate is fitted with 3 test sheets.
(§2) Test System II (Effect Against Multi-Resistant Germs)
(§3) For this purpose, bacteria is cultivated on Müller-Hinton-Agar II plates.
(§4) With 1-1.5 ml physiological saline solution, a bacteria suspension of McFarland 0.5 (corresponds to a bacteria density of 150×10^6 germs) is produced. Then, with a sterile glass rod, a small drop of bacteria suspension is placed on the Müller-Hinton-Agar plate and coated in three layers (vertical, horizontal, and transverse). Thereafter, the sensi-discs with the novel semi-synthetic test substances are placed on top. The fitted plates are incubated for 18-20 hours at 37° C. After incubation, the diameters of the zones of inhibition are read as a measure for the antimicrobial activity of the novel semi-synthetic test substances.

[2] = tested on: Staphylococcus aureus 315; test: as above; type: cell-based; design: key: r = resistant (no detectable zone of inhibition)
Description: as §1, §2, §3, §4

[3] = tested on: S. aureus ATCC 6538; test: as above; type: cell-based, Staphylococcus aureus
Description: as §1, §2, §3, §4

[4] = tested on: S. aureus 38418; test: as above; type: cell-based, Staphylococcus aureus
Description: as §1, §2, §3, §4

[5] = tested on: S. epidermidis 563; test: as above; type: cell-based, Staphylococcus epidermidis; design: key: r = resistant (no detectable zone of inhibition)
Description: as §1, §2, §3, §4

[6] = tested on: S. epidermidis 847; test: as above; type: cell-based, Staphylococcus epidermidis; design: key: r = resistant (no detectable zone of inhibition)
Description: as §1, §2, §3, §4

[7] = tested on: S. epidermidis 1071; test: as above; type: cell-based, Staphylococcus epidermidis; design: key: r = resistant (no detectable zone of inhibition)
Description: as §1, §2, §3, §4

[8] = tested on: S. epidermidis 1068; test: as above; type: cell-based, Staphylococcus epidermidis; design: key: r = resistant (no detectable zone of inhibition)
Description: as §1, §2, §3, §4

[9] = tested on: Escherichia coli SBUG 1135; test: agar diffusion test (Test System 1, antimicrobial effect); type: cell-based; design: key: r = resistant (no detectable zone of inhibition)
Description: (§5) Test System 1 (Antimicrobial Effect)
(§6) The test germs Escherichia coli SBUG 1135 and Bacillus megaterium SBUG 1152 are drawn overnight (17 hours at 37° C.) in 5 ml nutrient medium II. The incubation is performed in a shaking incubator (INFORS AG CH 4103, Bottmingen, Switzerland) at a shaking frequency of 180 rpm.
(§7) After 17 h incubation time, Escherichia coli has reached a cell density of ca. 2.4×10^10 cells/ml and Bacillus megaterium a cell density of ca. 2.1×10^8 cells/ml.
(§8) The seeding of bacteria in agar is selected so that, dense, but not confluent individual colonies develop after the incubation.
Escherichia coli: the ÜN is diluted 1:100 with physiological saline solution, of which 0.1 ml is converted into 10 ml nutrient agar. That corresponds to a cell count of 10^6.
(§9) The inoculated nutrient agar is set in sterile Petri dishes and left standing for a few minutes for drying.
as §1
(§10) After a 20-hour incubation time at 37° C., the zones of inhibition around the individual test sheets could be measured. The diameter of the zone of inhibition is specified in mm.

[10] = tested on: B. subtilis AWD 166; test: agar diffusion test (antimicrobial effect); type: cell-based, Bacillus subtilis
Description: as §8, §9, §1, §10

[11] = tested on: E. faecalis 945; test: agar diffusion test (Test System II, multi-resistant germs); type: cell-based, Enterococcus faecalis; design: key: r = resistant (no detectable zone of inhibition)
Description: as §1, §2, §3, §4

[12] = tested on: Bacillus megaterium SBUG 1152; test: agar diffusion test (Test System 1, antimicrobial effect); type: cell-based
Description: as §5, §6, §7, §8
Bacillus megaterium: 0.1 ml of non-diluted overnight culture (ÜN) in 10 ml nutrient agar corresponds to a cell count of 10^6.
as §9, §1, §10

[13] = tested on: S. epidermidis 125; test: agar diffusion test (Test System II, multi-resistant germs); type: cell-based, Staphylococcus epidermidis
Description: as §1, §2, §3, §4

[14] = tested on: S. aureus 34289; test: as above; type: cell-based, Staphylococcus aureus; design: key: r = resistant (no detectable zone of inhibition)
Description: as §1, §2, §3, §4

[15] = tested on: S. aureus North Germany strain; test: as above; type: cell-based, Staphylococcus aureus; design: key: r = resistant (no detectable zone of inhibition)
Description: as §1, §2, §3, §4

[16] = tested on: S. aureus 33490; test: as above; type: cell-based, Staphylococcus aureus; design: key: r = resistant (no detectable zone of inhibition)
Description: as §1, §2, §3, §4

[17] = tested on: S. aureus 36881; test: as above; type: cell-based, Staphylococcus aureus; design: key: r = resistant (no detectable zone of inhibition)
Description: as §1, §2, §3, §4

[18] = tested on: S. aureus 520; test: as above; type: cell-based, Staphylococcus aureus; design: key: r = resistant (no detectable zone of inhibition)
Description: as §1, §2, §3, §4

[19] = tested on: S. aureus 39105; test: as above; type: cell-based, Staphylococcus aureus; design: key: r = resistant (no detectable zone of inhibition)
Description: as §1, §2, §3, §4

[20] = tested on: S. aureus 526; test: as above; type: cell-based, Staphylococcus aureus; design: key: r = resistant (no detectable zone of inhibition)
Description: as §1, §2, §3, §4

With `COC(=O)C1=C(NC(C(=O)NC2C(=O)N3C(C(=O)O)=C(C)CSC23)c2ccccc2)C(=O)C=CC1=O` (stereo not drawn) [1g, 7-[2-(2-methoxycarbonyl-3,6-dioxocyclohexa-1,4-dienylamino)-2-phenyl-acetylamino]-desacetoxycephalosporanic acid] the “Diameter of zone of inhibition” value ([1]; Quantity n 0.029) was “r”, the “Diameter of zone of inhibition” value ([1]; Quantity n 0.14) was “r” and the “Diameter of zone of inhibition” value ([1]; Quantity n 0.29) was “r”. The “Diameter of zone of inhibition” value ([2]; Quantity n 0.029) was “r”, the “Diameter of zone of inhibition” value ([2]; Quantity n 0.14) was “r” and the “Diameter of zone of inhibition” value ([2]; Quantity n 0.29) was 12 mm. The “Diameter of zone of inhibition” value ([3]; Quantity n 0.029) was 20 mm, the “Diameter of zone of inhibition” value ([3]; Quantity n 0.14) was 28 mm and the “Diameter of zone of inhibition” value ([3]; Quantity n 0.29) was 32 mm. For the same compound, the “Diameter of zone of inhibition” value ([4]; Quantity n [mol] 0.029) was 16 mm, the “Diameter of zone of inhibition” value ([4]; Quantity n [mol] 0.14) was 26 mm and the “Diameter of zone of inhibition” value ([4]; Quantity n [mol] 0.29) was 30 mm. For the same compound, the “Diameter of zone of inhibition” value ([5]; Quantity n 0.029) was “r”, the “Diameter of zone of inhibition” value ([5]; Quantity n 0.14) was 8 mm and the “Diameter of zone of inhibition” value ([5]; Quantity n 0.29) was 14 mm. For the same compound, the “Diameter of zone of inhibition” value ([6]; Quantity n [mol] 0.029) was “r”, the “Diameter of zone of inhibition” value ([6]; Quantity n [mol] 0.14) was 14 mm and the “Diameter of zone of inhibition” value ([6]; Quantity n [mol] 0.29) was 18 mm. For the same compound, the “Diameter of zone of inhibition” value ([7]; Quantity n 0.029) was “r”, the “Diameter of zone of inhibition” value ([7]; Quantity n 0.14) was 18 mm and the “Diameter of zone of inhibition” value ([7]; Quantity n 0.29) was 22 mm. For the same compound, the “Diameter of zone of inhibition” value ([8]; Quantity n 0.029) was “r”, the “Diameter of zone of inhibition” value ([8]; Quantity n 0.14) was 14 mm and the “Diameter of zone of inhibition” value ([8]; Quantity n 0.29) was 18 mm. For the same compound, the “Diameter of zone of inhibition” value ([9]; Quantity n 0.029) was “r”, the “Diameter of zone of inhibition” value ([9]; Quantity n 0.14) was 16 mm and the “Diameter of zone of inhibition” value ([9]; Quantity n 0.29) was 22 mm. For the same compound, the “Diameter of zone of inhibition” value ([10]; Quantity n 0.029) was 24 mm, the “Diameter of zone of inhibition” value ([10]; Quantity n 0.14) was 30 mm and the “Diameter of zone of inhibition” value ([10]; Quantity n 0.29) was 32 mm. The “Diameter of zone of inhibition” value ([11]; Quantity n 0.029) was “r”, the “Diameter of zone of inhibition” value ([11]; Quantity n 0.14) was “r” and the “Diameter of zone of inhibition” value ([11]; Quantity n 0.29) was “r”. The “Diameter of zone of inhibition” value ([12]; Quantity n 0.029) was 20 mm, the “Diameter of zone of inhibition” value ([12]; Quantity n 0.14) was 30 mm and the “Diameter of zone of inhibition” value ([12]; Quantity n 0.29) was 34 mm. The “Diameter of zone of inhibition” value ([13]; Quantity n 0.029) was 14 mm, the “Diameter of zone of inhibition” value ([13]; Quantity n 0.14) was 24 mm and the “Diameter of zone of inhibition” value ([13]; Quantity n 0.29) was 28 mm. The “Diameter of zone of inhibition” value ([14]; Quantity n [mol] 0.029) was “r”, the “Diameter of zone of inhibition” value ([14]; Quantity n [mol] 0.14) was “r” and the “Diameter of zone of inhibition” value ([14]; Quantity n [mol] 0.29) was “r”. The “Diameter of zone of inhibition” value ([15]; Quantity n 0.029) was “r”, the “Diameter of zone of inhibition” value ([15]; Quantity n 0.14) was 10 mm and the “Diameter of zone of inhibition” value ([15]; Quantity n 0.29) was 14 mm. The “Diameter of zone of inhibition” value ([16]; Quantity n [μmol] 0.029) was “r”, the “Diameter of zone of inhibition” value ([16]; Quantity n [μmol] 0.14) was 20 mm and the “Diameter of zone of inhibition” value ([16]; Quantity n [μmol] 0.29) was 24 mm. For the same compound, the “Diameter of zone of inhibition” value ([17]; Quantity n 0.029) was “r”, the “Diameter of zone of inhibition” value ([17]; Quantity n 0.14) was “r” and the “Diameter of zone of inhibition” value ([17]; Quantity n 0.29) was 12 mm. The “Diameter of zone of inhibition” value ([18]; Quantity n [mol] 0.029) was “r”, the “Diameter of zone of inhibition” value ([18]; Quantity n [mol] 0.14) was “r” and the “Diameter of zone of inhibition” value ([18]; Quantity n [mol] 0.29) was “r”. The “Diameter of zone of inhibition” value ([19]; Quantity n 0.029) was “r”, the “Diameter of zone of inhibition” value ([19]; Quantity n 0.14) was 10 mm and the “Diameter of zone of inhibition” value ([19]; Quantity n 0.29) was 18 mm. The “Diameter of zone of inhibition” value ([20]; Quantity n 0.029) was “r”, the “Diameter of zone of inhibition” value ([20]; Quantity n 0.14) was “r” and the “Diameter of zone of inhibition” value ([20]; Quantity n 0.29) was “r”.
